Laboratory results as given in ChEMBL document CHEMBL4610123, “Structure-Based Drug Discovery of N-((R)-3-(7-Methyl-1H-indazol-5-yl)-1-oxo-1-(((S)-1-oxo-3-(piperidin-4-yl)-1-(4-(pyridin-4-yl)piperazin-1-yl)propan-2-yl)amino)propan-2-yl)-2'-oxo-1',2'-dihydrospiro[piperidine-4,4'-pyrido[2,3-d][1,3]oxazine]-1-carboxamide (HTL22562): A Calcitonin Gene-Related …” (J Med Chem, 2020).
≈ marks a conversion by molar mass, not a printed value.

Columns and labels:
[1] = AUC (infinity) in cynomolgus monkey at 0.013 mg/kg, sc; assay type: ADME, organism-based, Macaca fascicularis; parameters: dose 0.013 mg/kg, route subcutaneous, time infinity; details: in vivo
[2] = Genotoxicity in Salmonella typhimurium TA1535 by mini AMES test; assay type: toxicity; details: salmonella enterica subsp. enterica serovar typhimurium
[3] = biological target: T1, Mas-related G-protein coupled receptor member X2 (Homo sapiens, UniProt Q96LB1); experiment: Agonist activity at MRGPX2 (unknown origin)
T1 sequence (Q96LB1 whole entry): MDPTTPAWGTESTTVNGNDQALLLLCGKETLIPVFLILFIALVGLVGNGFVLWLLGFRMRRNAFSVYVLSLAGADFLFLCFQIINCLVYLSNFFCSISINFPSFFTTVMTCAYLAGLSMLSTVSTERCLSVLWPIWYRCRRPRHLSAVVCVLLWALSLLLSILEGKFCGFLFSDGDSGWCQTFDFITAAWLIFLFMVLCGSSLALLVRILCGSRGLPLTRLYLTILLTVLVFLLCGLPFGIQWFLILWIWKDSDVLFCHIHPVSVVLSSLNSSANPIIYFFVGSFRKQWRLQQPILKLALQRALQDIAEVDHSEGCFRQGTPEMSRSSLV

[4] = Volume of distribution at steady state in dog at 0.5 mg/kg, iv; assay type: ADME, organism-based, Canis lupus familiaris; details: in vivo, read-out: Vdss
Canis lupus familiaris = species on record: Canis lupus familiaris; experiment: Antagonist activity at dog CGRP receptor
Cytochrome P450 2C19 = Cytochrome P450 2C19 (Homo sapiens, UniProt P33261); experiment: Inhibition of CYP2C19 (unknown origin); assay type: ADME
Sequence of Cytochrome P450 2C19 (P33261 whole entry): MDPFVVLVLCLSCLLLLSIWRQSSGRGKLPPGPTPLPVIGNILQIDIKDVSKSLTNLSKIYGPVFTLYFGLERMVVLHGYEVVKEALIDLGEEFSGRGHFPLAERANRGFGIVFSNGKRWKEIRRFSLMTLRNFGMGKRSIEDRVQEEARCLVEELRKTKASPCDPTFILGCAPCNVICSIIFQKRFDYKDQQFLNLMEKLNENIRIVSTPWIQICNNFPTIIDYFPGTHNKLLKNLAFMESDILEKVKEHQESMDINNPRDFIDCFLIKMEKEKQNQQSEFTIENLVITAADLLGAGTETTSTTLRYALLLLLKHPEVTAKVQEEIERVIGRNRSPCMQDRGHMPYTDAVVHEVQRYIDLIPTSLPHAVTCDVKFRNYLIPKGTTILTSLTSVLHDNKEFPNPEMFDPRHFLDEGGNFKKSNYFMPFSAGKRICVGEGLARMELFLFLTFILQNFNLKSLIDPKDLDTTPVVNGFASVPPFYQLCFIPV

[5] = Tmax in cynomolgus monkey at 0.5 mg/kg, sc; assay type: ADME, organism-based, Macaca fascicularis; details: in vivo
[6] = biological target: Calcitonin-gene-related peptide receptor; CALCRL/RAMP1 (Rattus norvegicus) (UniProt Q63118+Q9JJ74); experiment: Antagonist activity at rat CGRP receptor; assay type: protein-complex assay
PXR (NR1I2) = biological target: T2, PXR (NR1I2) (Homo sapiens, UniProt O75469); experiment: Transactivation of PXR (unknown origin) assessed as induction of CYP450 at 3 uM relative to control; assay type: ADME; details: read-out: FC
T2 sequence (O75469 whole entry): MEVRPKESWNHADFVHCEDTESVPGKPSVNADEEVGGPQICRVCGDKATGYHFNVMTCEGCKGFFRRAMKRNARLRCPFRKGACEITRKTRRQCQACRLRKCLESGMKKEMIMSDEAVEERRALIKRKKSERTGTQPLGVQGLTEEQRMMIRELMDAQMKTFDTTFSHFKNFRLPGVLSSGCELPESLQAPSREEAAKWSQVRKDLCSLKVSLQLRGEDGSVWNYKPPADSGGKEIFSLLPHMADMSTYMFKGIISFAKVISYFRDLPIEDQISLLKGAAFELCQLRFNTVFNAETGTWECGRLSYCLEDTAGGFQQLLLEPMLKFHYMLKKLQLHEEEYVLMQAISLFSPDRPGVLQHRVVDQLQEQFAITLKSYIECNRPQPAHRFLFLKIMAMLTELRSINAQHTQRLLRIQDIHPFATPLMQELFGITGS

[7] = Thermodynamic solubility of the compound at pH 7.4; assay type: physicochemical; details: buffer, read-out: Therm_solubility
[8] = Tmax in rat at 1 mg/kg, sc; assay type: ADME, organism-based; details: in vivo
[9] = Solubility of the compound at pH 5.7 using amorphous form of sample; assay type: physicochemical; details: buffer
[10] = Solubility of the compound at pH 4 using amorphous form of sample; assay type: physicochemical; details: buffer
Cytochrome P450 2D6 = Cytochrome P450 2D6 (Homo sapiens, UniProt P10635); experiment: Inhibition of CYP2D6 (unknown origin); assay type: ADME
Sequence of Cytochrome P450 2D6 (P10635 whole entry): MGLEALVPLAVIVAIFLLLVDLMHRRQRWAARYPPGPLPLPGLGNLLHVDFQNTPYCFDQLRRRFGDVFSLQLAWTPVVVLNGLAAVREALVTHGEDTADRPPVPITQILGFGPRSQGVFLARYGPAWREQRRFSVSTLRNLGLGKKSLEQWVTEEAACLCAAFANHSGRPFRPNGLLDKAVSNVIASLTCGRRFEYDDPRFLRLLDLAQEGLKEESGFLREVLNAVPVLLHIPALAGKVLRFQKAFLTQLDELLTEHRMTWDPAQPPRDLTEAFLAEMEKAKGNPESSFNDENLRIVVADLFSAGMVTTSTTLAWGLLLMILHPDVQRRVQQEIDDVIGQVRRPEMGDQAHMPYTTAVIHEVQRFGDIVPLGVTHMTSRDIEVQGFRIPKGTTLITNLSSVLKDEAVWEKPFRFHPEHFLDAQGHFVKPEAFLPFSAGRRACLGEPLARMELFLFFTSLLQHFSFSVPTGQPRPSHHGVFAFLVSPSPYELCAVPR

Cytochrome P450 1A2 = biological target: T3, Cytochrome P450 1A2 (Homo sapiens, UniProt P05177); experiment: Inhibition of CYP1A2 (unknown origin); assay type: ADME
T3 sequence (P05177 whole entry): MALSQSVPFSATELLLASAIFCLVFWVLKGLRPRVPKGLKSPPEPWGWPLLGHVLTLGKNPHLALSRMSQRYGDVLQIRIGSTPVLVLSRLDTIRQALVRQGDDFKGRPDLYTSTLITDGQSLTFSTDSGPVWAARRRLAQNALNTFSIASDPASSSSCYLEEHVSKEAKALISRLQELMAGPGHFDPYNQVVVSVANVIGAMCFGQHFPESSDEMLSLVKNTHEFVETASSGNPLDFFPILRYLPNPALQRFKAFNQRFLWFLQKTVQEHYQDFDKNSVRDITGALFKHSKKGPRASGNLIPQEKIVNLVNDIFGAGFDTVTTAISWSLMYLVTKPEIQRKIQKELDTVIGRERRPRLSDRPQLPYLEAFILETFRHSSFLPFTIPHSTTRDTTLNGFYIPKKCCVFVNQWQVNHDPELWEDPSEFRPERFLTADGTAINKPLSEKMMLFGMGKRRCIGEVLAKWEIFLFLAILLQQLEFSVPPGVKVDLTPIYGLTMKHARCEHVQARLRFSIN

[11] = Half life in rat at 2 mg/kg, iv; assay type: ADME, organism-based; details: in vivo
[12] = Half life in cynomolgus monkey hepatocytes; assay type: ADME, cell-based, Macaca fascicularis, Hepatocyte
[13] = biological target: T4, Muscarinic acetylcholine receptor M2 (Homo sapiens) (UniProt P08172); experiment: Antagonist activity at CHRM2 (unknown origin) at 10 uM relative to control
T4 sequence (whole entry): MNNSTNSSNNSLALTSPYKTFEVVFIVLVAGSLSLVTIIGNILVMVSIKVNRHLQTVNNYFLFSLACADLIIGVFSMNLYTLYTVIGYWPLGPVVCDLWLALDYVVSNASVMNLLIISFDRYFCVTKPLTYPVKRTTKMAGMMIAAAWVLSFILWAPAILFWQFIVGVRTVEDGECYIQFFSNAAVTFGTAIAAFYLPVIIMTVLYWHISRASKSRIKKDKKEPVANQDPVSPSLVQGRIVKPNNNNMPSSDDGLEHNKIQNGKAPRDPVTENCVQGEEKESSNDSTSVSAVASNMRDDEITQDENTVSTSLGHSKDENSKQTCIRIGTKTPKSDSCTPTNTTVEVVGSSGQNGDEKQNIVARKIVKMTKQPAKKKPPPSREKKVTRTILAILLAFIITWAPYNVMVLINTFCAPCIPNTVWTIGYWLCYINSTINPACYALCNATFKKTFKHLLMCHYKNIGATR

[14] = Toxicity in rat assessed as behavioral changes at 0.1 to 1 mg/kg/day, sc administered for 10 days; assay type: organism-based; details: in vivo, 240 h
[15] = AUC (infinity) in cynomolgus monkey at 0.5 mg/kg, sc; assay type: ADME, organism-based, Macaca fascicularis; parameters: dose 0.5 mg/kg, route subcutaneous, time infinity; details: in vivo
Homo sapiens [16] = species on record: Homo sapiens; experiment: Selectivity ratio of antagonist activity at amylin-1 receptor (unknown origin) to antagonist activity at human CGRP receptor in human SK-N-MC cells; assay type: cell-based
Homo sapiens [17] = species on record: Homo sapiens; experiment: Selectivity ratio of antagonist activity at adrenomedullin-1 receptor (unknown origin) to antagonist activity at human CGRP receptor in human SK-N-MC cells; assay type: cell-based
[18] = Volume of distribution at steady state in cynomolgus monkey at 0.5 mg/kg, iv; assay type: ADME, organism-based, Macaca fascicularis; details: in vivo, read-out: Vdss
Cytochrome P450 2C9 = Cytochrome P450 2C9 (Homo sapiens, UniProt P11712); experiment: Inhibition of CYP2C9 (unknown origin); assay type: ADME
Sequence of Cytochrome P450 2C9 (P11712 whole entry): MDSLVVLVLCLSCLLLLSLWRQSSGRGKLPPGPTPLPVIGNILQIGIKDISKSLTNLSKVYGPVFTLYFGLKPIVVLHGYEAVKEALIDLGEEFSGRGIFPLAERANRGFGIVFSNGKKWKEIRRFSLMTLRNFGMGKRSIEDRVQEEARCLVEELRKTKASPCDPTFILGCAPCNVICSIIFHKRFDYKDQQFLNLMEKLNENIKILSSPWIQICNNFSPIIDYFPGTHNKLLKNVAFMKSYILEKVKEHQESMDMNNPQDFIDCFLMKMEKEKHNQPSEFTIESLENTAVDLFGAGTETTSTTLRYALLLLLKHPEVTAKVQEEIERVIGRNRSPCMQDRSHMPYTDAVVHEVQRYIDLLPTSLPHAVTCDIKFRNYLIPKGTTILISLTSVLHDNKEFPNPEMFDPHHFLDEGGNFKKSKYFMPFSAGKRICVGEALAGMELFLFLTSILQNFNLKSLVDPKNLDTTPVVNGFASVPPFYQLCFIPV

[19] = Clearance in dog at 0.5 mg/kg, iv; assay type: ADME, organism-based, Canis lupus familiaris; details: in vivo
[20] = Protein binding in cynomolgus monkey plasma by high-throughput dialysis method; assay type: ADME, cell-free, Macaca fascicularis; details: read-out: PPB (converted)
[21] = Oral bioavailability in rat at 1 mg/kg; assay type: ADME, organism-based; details: in vivo

Question: Which AUC(0-inf) [1] does the source give for `Cc1cc(C[C@@H](NC(=O)N2CCC3(CC2)OC(=O)Nc2ncccc23)C(=O)N[C@@H](CC2CCNCC2)C(=O)N2CCN(c3ccncc3)CC2)cc2cn[nH]c12` [HTL-0022562] here?
Answer: Its AUC(0-inf) is 81 ng·h/mL.

Question: And the Activity [2]?
Answer: The Activity was “Non-Toxic”.

Question: And the EC50 [3]?
Answer: Its EC50 is 0.9 µM.

Question: And the Vd [4]?
Answer: Its Vd is 0.3 L/kg.

Question: What about the pKb (Canis lupus familiaris) of the same compound?
Answer: Its pKb is 7.2.

Question: And the IC50 (Cytochrome P450 2C19)?
Answer: Its IC50 is over 50.1 µM.

Question: And the Tmax [5]?
Answer: Its Tmax is 48 min.

Question: What about the pKb [6] of the same compound?
Answer: Its pKb is under 7.

Question: What about the fold induction at 3 µM (PXR (NR1I2)) of the same compound?
Answer: Its fold induction at 3 µM is 2.3.

Question: And the solubility thermodynamic [7]?
Answer: Its solubility thermodynamic is 2460 µM (≈ 1880 µg/mL).

Question: And the Tmax [8]?
Answer: The Tmax was 42 min.

Question: And the solubility [9]?
Answer: The solubility was 115 mg/mL (≈ 151 mM).

Question: What about the solubility [10] of the same compound?
Answer: Its solubility is 174 mg/mL (≈ 228 mM).

Question: What about the IC50 (Cytochrome P450 2D6) of the same compound?
Answer: Its IC50 is over 50.1 µM.

Question: What about the IC50 (Cytochrome P450 1A2) of the same compound?
Answer: Its IC50 is over 50.1 µM.

Question: What about the half-life [11] of the same compound?
Answer: Its half-life is 282 min.

Question: What about the half-life [12] of the same compound?
Answer: Its half-life is over 300 min.

Question: And the inhibition [13]?
Answer: Its inhibition is 65%.

Question: And the Activity [14]?
Answer: Its Activity is “Non-Toxic”.

Question: What about the AUC(0-inf) [15] of the same compound?
Answer: The AUC(0-inf) was 4210 ng·h/mL.

Question: What about the Selectivity ratio (Homo sapiens [16]) of the same compound?
Answer: Its Selectivity ratio is over 8000.

Question: What about the Selectivity ratio (Homo sapiens [17]) of the same compound?
Answer: Its Selectivity ratio is over 8000.

Question: What about the Vd [18] of the same compound?
Answer: Its Vd is 0.4 L/kg.

Question: What about the IC50 (Cytochrome P450 2C9) of the same compound?
Answer: The IC50 was over 50.1 µM.

Question: And the clearance [19]?
Answer: The clearance was 10 mL/min/kg.

Question: What about the fraction unbound [20] of the same compound?
Answer: The fraction unbound was 0.69.

Question: And the bioavailability [21]?
Answer: Its bioavailability is 123%.
